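Growth conditions: 96-well plates. Treatment: test compound, 48 hours, 5 concentrations. Analysis: linear interpolation between bracketing concentrations; unreached endpoints set to highest concentration. GI50: concentration for 50% inhibition of growth.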 Activity calls are given as the source filed them. No stated cut-off is given here; in the data, active = GI50 up to about 1.1 µM and inactive = higher.
How the values were obtained:
Test in all cases: DTP human tumour cell line panel, 48 h
[1] = test system: 786-0
[2] = test system: ACHN
[3] = test system: CCRF-CEM
[4] = test system: COLO 205
[5] = test system: HCT-15
[6] = test system: HL-60
[7] = test system: Hs-578T
[8] = test system: IGROV-1
[9] = test system: M14
[10] = test system: MDA-MB-435
[11] = test system: NCI-H226
[12] = test system: NCI-H522
[13] = test system: OVCAR-4
[14] = test system: OVCAR-5
[15] = test system: PC-3
[16] = test system: SF-268
[17] = test system: SK-MEL-28
[18] = test system: SNB-19
[19] = test system: U-251
[20] = test system: SNB-75

Measured: GI50

O=[N+]([O-])/C(C(Cl)=C(Cl)Cl)=C(\SCc1ccccc1)N1CCCCC1
19.7 µM: [5]
inactive: [1] 15.9 µM | [2] 17.4 µM | [3] 8.34 µM | [4] 16.4 µM | [6] 9.73 µM | [7] 27.5 µM | [8] 24.6 µM | [9] 19.3 µM | [10] 16.3 µM | [11] 19.7 µM | [12] 14.7 µM | [13] 15 µM | [14] 20.4 µM | [15] 20 µM | [16] 23.7 µM | [17] 37.2 µM | [18] 56.2 µM | [19] 43.8 µM

Nc1ncnc2c1ccn2CC#CCO
inactive: [1] > 100 µM | [2] > 100 µM | [3] > 100 µM | [4] > 100 µM | [6] 93.8 µM | [7] > 100 µM | [8] > 100 µM | [9] > 100 µM | [10] > 100 µM | [12] > 100 µM | [13] > 100 µM | [14] > 100 µM | [15] > 100 µM | [16] > 100 µM | [17] > 100 µM | [18] > 100 µM | [20] > 100 µM | [19] > 100 µM
> 100 µM: [5]

Cc1ccc(S(=O)(=O)NC2C(=O)c3ccccc3C(=O)C2n2cnc3ccccc32)cc1 (configuration not stated)
25.6 µM: [5]
inactive: [1] 39.5 µM | [2] 24.3 µM | [3] 53.1 µM | [4] 20 µM | [6] 16.6 µM | [7] 51.6 µM | [8] 16.8 µM | [9] 25.3 µM | [10] 18.6 µM | [11] 42.8 µM | [13] 2.19 µM | [14] > 100 µM | [15] 21.2 µM | [16] 40 µM | [17] 29.3 µM | [18] 27.4 µM | [20] 30.3 µM | [19] 26.1 µM

COc1ccc(C2C(=O)c3c(OC)cc(OC)cc3OC2c2cccnc2)cc1 (configuration not stated)
> 100 µM: [5]
inactive: [1] > 100 µM | [2] > 100 µM | [3] 66.2 µM | [4] 70.3 µM | [7] > 100 µM | [8] > 100 µM | [9] > 100 µM | [10] 44.5 µM | [11] 43.8 µM | [12] 35.8 µM | [13] 44.2 µM | [14] > 100 µM | [15] > 100 µM | [16] > 100 µM | [17] > 100 µM | [18] > 100 µM | [20] 27.4 µM

[O-][S+](Cc1ccccc1)c1ccccc1Cn1cccc1 (configuration not stated)
> 100 µM: [5]
inactive: [1] > 100 µM | [2] > 100 µM | [3] > 100 µM | [4] > 100 µM | [6] > 100 µM | [7] > 100 µM | [8] > 100 µM | [9] > 100 µM | [10] 42.6 µM | [13] 41.9 µM | [14] > 100 µM | [15] > 100 µM | [16] > 100 µM | [17] > 100 µM | [18] > 100 µM | [20] 74.3 µM | [19] > 100 µM

N/N=C(\N)SCCCCCCCCCCS/C(N)=N/N
inactive: [1] 31.5 µM | [2] 20.7 µM | [3] 17.2 µM | [4] 14.6 µM | [6] 17.3 µM | [7] 30.8 µM | [8] 18.7 µM | [9] 29.4 µM | [10] 32.7 µM | [11] 27 µM | [12] 17.1 µM | [14] 45.4 µM | [15] 34.6 µM | [16] 30.3 µM | [17] 37.8 µM | [18] 40.7 µM | [19] 17.6 µM
14.3 µM: [5]

OC1c2ccccc2CCC1CN1CCN(CCOC(c2ccc(F)cc2)c2ccc(F)cc2)CC1 (configuration not stated)
active: [3] 0.145 µM
6.05 µM: [5]
inactive: [1] 11.7 µM | [2] 21.6 µM | [4] 1.72 µM | [7] 17.9 µM | [8] 17.9 µM | [9] 10.9 µM | [10] 17.5 µM | [11] 13.6 µM | [12] 15.7 µM | [13] 50.5 µM | [15] 16.3 µM | [16] 16.6 µM | [17] 13.3 µM | [18] 31.6 µM | [20] 20.3 µM | [19] 13.8 µM

O=C(O)C1C(C(=O)O)C(C(=O)O)C1C(=O)O (configuration not stated)
> 100 µM: [5]
inactive: [1] > 100 µM | [2] > 100 µM | [3] > 100 µM | [4] > 100 µM | [7] > 100 µM | [8] > 100 µM | [9] > 100 µM | [10] > 100 µM | [11] > 100 µM | [12] > 100 µM | [13] > 100 µM | [14] > 100 µM | [15] > 100 µM | [16] > 100 µM | [17] > 100 µM | [18] > 100 µM | [20] > 100 µM | [19] > 100 µM

COC(=O)c1c(O)ccc2c1c1cc3ccccc3c(O)c1n2CCc1ccc(OC)c(OC)c1
61.5 µM: [5]
inactive: [1] 91.8 µM | [2] 83.4 µM | [3] 30.1 µM | [4] 15.5 µM | [6] 65.9 µM | [7] 31.4 µM | [8] 42.2 µM | [9] 86.7 µM | [10] 53.7 µM | [11] > 100 µM | [12] 21.1 µM | [13] 42.1 µM | [14] > 100 µM | [15] 59.8 µM | [16] 76.4 µM | [17] 17.4 µM | [18] > 100 µM | [19] > 100 µM

CCn1c2nc(=O)n(CCCCCCCCSC(c3ccccc3)(c3ccccc3)c3ccccc3)c(=O)c-2nc2ccccc21
8.38 µM: [5]
active: [6] 0.181 µM
inactive: [1] 14.6 µM | [2] 3.21 µM | [3] 1.43 µM | [7] 3.33 µM | [8] 31.3 µM | [9] 8.61 µM | [10] 6.12 µM | [11] > 100 µM | [12] 3.13 µM | [13] 9.53 µM | [14] > 100 µM | [15] 4.9 µM | [16] 4.08 µM | [17] 53.3 µM | [19] 19 µM

CC1C[C@]2(C)C(NCCN)=Nc3ccccc3[C@@H]2N(C)c2ccccc21 (some centres not stated)
inactive: [1] 12.2 µM | [2] 16.3 µM | [3] 15.9 µM | [4] 2.23 µM | [6] 16.2 µM | [7] 18.3 µM | [8] 14.1 µM | [9] 1.9 µM | [10] 10.7 µM | [11] 14.7 µM | [13] 16.3 µM | [14] 14 µM | [15] 12.9 µM | [16] 13.9 µM | [17] 11.2 µM | [18] 13.4 µM | [20] 3.45 µM
17.3 µM: [5]
